Values quoted from earlier work as cited in patent publication US20160174603A1, “Electronic Vapor Liquid Composition and Method of Use” (priority 2014, published 2016).
Values belong to the molecule of their own block, whether it stands above or below them.

Legend:
[1] = tested on: thermal hyperalgesia
[2] = molecular target: T1, MAO-B (Homo sapiens, UniProt P27338); conditions: read-out: Ki, reversible MAO-B inhibitor
T1 sequence (P27338 1-520): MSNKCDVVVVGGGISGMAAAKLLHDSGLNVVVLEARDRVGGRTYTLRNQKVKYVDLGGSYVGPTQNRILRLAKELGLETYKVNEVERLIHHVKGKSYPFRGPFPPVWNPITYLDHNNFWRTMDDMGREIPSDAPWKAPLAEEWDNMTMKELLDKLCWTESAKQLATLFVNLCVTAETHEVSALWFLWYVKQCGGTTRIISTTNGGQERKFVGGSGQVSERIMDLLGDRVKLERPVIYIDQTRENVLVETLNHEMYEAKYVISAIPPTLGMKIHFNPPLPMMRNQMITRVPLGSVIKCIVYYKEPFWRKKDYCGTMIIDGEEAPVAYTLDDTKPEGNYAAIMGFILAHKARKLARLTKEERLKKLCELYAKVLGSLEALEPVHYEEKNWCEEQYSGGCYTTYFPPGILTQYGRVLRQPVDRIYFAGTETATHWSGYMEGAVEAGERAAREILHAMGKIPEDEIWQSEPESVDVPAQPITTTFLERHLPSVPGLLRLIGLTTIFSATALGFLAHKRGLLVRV

[3] = tested on: dopamine levels in the nucleus accumbens; conditions: rat, in vivo
[4] = molecular target: T2, TRPC6 receptor (Homo sapiens, UniProt Q9Y210)
T2 sequence (Q9Y210 1-931): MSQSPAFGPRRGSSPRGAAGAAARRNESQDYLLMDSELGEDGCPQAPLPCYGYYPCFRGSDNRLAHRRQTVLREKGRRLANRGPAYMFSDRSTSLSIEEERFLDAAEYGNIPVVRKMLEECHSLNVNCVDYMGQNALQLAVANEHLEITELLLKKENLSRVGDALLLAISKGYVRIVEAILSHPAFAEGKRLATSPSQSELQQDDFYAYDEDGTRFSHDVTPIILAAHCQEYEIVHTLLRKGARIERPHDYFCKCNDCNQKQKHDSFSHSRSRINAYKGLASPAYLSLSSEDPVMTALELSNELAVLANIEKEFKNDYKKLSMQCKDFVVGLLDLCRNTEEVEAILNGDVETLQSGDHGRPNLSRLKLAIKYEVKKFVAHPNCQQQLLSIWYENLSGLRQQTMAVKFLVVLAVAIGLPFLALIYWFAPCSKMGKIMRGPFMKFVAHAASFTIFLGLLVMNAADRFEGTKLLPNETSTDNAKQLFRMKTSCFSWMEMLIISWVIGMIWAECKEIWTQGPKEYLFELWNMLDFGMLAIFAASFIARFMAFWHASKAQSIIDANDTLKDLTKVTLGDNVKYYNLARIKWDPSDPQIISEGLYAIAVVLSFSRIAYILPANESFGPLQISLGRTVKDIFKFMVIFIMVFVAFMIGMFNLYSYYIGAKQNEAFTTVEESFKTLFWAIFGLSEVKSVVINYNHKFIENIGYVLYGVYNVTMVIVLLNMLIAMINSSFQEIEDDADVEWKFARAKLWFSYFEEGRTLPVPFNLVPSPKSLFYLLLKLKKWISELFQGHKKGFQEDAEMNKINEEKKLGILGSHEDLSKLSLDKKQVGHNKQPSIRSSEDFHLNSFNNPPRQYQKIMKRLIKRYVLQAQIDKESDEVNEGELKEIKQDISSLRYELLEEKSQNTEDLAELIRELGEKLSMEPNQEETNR

[5] = molecular target: norepinephrine transporter (NAT) (Homo sapiens, UniProt P23975); conditions: both enantiomeric forms
Chain of norepinephrine transporter (NAT) (P23975 whole entry): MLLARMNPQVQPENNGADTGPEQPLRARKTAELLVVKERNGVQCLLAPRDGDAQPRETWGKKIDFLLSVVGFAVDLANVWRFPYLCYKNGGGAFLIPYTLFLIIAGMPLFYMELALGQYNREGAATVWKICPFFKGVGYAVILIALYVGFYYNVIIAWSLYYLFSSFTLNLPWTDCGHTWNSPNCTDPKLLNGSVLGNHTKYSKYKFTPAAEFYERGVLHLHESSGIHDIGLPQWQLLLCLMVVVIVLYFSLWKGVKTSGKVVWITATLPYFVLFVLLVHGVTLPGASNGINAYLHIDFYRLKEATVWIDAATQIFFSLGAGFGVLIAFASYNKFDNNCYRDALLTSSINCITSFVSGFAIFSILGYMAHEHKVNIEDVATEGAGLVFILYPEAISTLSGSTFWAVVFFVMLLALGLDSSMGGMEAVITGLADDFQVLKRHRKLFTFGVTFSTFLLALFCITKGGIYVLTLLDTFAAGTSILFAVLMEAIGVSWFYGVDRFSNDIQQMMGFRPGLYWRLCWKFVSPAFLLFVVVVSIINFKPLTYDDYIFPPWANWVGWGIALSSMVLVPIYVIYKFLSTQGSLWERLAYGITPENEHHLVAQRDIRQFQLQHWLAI

[6] = tested on: adenosine receptor; conditions: in vitro
[7] = tested on: calcium channel
[8] = tested on: NMDA-induced current
[9] = molecular target: acetylcholinesterase (Homo sapiens, UniProt P22303); conditions: in vitro
Chain of acetylcholinesterase (P22303 32-614, species assumed): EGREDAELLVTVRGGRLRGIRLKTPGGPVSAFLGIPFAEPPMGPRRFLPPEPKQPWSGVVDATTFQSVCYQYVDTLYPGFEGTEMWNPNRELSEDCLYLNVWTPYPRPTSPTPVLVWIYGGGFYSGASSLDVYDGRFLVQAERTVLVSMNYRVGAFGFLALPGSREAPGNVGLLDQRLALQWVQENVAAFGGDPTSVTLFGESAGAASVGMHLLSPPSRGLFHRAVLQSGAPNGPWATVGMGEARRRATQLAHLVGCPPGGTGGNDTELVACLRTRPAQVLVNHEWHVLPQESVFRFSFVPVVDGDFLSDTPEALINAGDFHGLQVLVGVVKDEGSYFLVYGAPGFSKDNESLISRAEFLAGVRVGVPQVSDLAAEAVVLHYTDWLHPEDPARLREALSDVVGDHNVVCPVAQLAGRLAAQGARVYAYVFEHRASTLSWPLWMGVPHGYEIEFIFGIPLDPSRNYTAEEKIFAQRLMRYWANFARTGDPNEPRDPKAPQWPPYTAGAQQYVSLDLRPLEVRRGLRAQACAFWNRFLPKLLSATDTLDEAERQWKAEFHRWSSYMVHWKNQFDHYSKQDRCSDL

Molecule: O=C(O)[C@H]1O[C@@H](Oc2cc3oc(-c4ccccc4)cc(=O)c3c(O)c2O)[C@H](O)[C@@H](O)[C@@H]1O [Baicalin]
- effects in a rat model of thermal hyperalgesia [1]: anti-inflammatory and analgesic effects

- Ki [2]: 280 nM
Molecule: COc1cc(/C=C/c2ccccc2)oc(=O)c1 [Desmethoxyyangonin]
- dopamine levels in the nucleus accumbens [3]: able to increase dopamine levels

Molecule: CC(C)=CCC[C@]1(C)[C@@H](CC=C(C)C)C[C@@]2(CC=C(C)C)C(=O)[C@]1(C(=O)C(C)C)C(=O)C(CC=C(C)C)=C2O [Hyperforin]
- TRPC6 receptor activity [4]: TRPC6 receptor agonists

Molecule: COC1=CC(=O)O[C@@H](/C=C/c2ccccc2)C1 [Kavain]
- reuptake of norepinephrine at the transporter (NAT) [5]: inhibits the reuptake of norepinephrine

- TRPC6 receptor activity [4]: TRPC6 receptor agonists
Molecule: CCC(C)C(=O)[C@]12C(=O)[C@](CC=C(C)C)(C[C@H](CC=C(C)C)[C@@]1(C)CCC=C(C)C)C(=O)C(CC=C(C)C)=C2O (stereo partly shown) [adhyperforin]

Molecule: C=C1C(=O)O[C@@H]2[C@H]3C(CO)=CC(=O)C3=C(C)C[C@@H](O)[C@@H]12 [lactucin]
- adenosine receptor activity [6]: adenosine receptor agonist

Molecule: CC[C@H]1CN2CC[C@]3(C(=O)Nc4ccccc43)[C@@H]2C[C@@H]1/C(=C\OC)C(=O)OC [rhynchophylline]
- calcium channel activity [7]: calcium channel blocker
- effect on NMDA-induced current [8]: reduces NMDA-induced current

Molecule: lactucopicrin
- acetylcholinesterase activity [9]: acetylcholinesterase inhibitor
